Test results reported in patent US20150342190A1, “METHODS FOR LEVERAGING HORMESIS IN PLANT BREEDING AND PLANTS WITH ENHANCED HORMESIS EFFECTS” (PIONEER HI BRED INTERNATIONAL INC, priority 2014, published 2015).
Read-outs that look alike come from different tables or passages of the source.

Legend:
Format in all cases: in vivo
[1] = system: soybean line 93M94 (RR + Als1)
Method: (§1) The field trial was conducted as a 7×4 factorial experiment (7 herbicide regimes×4 genotypes) in a split block design with main blocks as herbicide treatments. The trial was conducted at 3 different environments (separate field locations) in Iowa during the summer of 2014. Herbicide control treatment #1 (no sulfonylurea) was replicated 12 times within each of the 3 environments (36 reps total). Herbicide treatments 2 through 7 (Table 7) were replicated 6 times at each of the 3 environments (18 reps total). The additional replication of control treatment #1 was done to increase precision of the treatment mean to which all other treatments (#2 through 7) would be compared.
(§2) It is important to note that both tribenuron and rimsulfuron are more toxic to wild type soybeans than other SU's that could also be tested. But treatment with these specific SU's and application rates was intended to push the limits of SU tolerance so that any response differences between lines could be exposed. The 4 genotypes (Table 6) were randomized within each of the main blocks to facilitate post-emergence application of the various herbicide treatments (Table 7). Each experimental unit was a 2-row soybean plot 15 feet long with 30 inch row spacing and a planting density of 8 seeds per foot of row. Planting was done in mid-May and harvest was done in early October at all 3 environments in 2014.
(§3) Several weeks after planting, the entire field was sprayed post-emergence at the V2 (2-leaf) stage with Roundup PowerMax® at 44 oz/acre (30 oz/acre ai glyphosate) with the addition of ammonium sulfate at a rate of 8 lb per 100 gallons as according to label. Several days later at the V3 (3-leaf) stage, herbicide treatments 2 through 7 (Table 7) were applied according to label directions including the addition of ammonium sulfate at a rate of 8 lb per 100 gallons of spray solution. Randomly embedded control plots of a given soybean genotype facilitated side-by-side visual estimates of herbicide injury. Plots were given visual injury ratings at 14 days after herbicide treatment (14 DAT). Visual injury estimates were assigned to reflect the crop response (a combination of reduced vigor and/or chlorosis) of sprayed rows in relation to the randomly embedded control plots. Injury scores were based on a 0-100% scale, with 0 indicating no crop response and 100 indicating all plants killed.
(§4) At maturity, the seed from each plot was harvested with weight and moisture recorded. Weights were then adjusted to 13% moisture content and reported in units of bushels per acre (bu/a). Yields were also converted to % of control on a “per line” and “per environment” basis. For example, the average yield of SU-treated 93Y92BC3 plots were compared to the average yield of 93Y92BC3 control plots within a given environment and then averaged across environments.

[2] = system: soybean line 94Y02 (RR + Als1)
Method: as §1, §2, §3, §4

[3] = system: soybean line 93Y82BC3 (RR + Als1 + Als2); assay: 2014 field hormesis trial (Example 4)
Method: as §1, §2, §3, §4

[4] = system: soybean line 93Y92BC3 (RR + Als1 + Als2); assay: 2014 field hormesis trial (Example 4)
Method: as §1, §2, §3, §4

[5] = system: soybean line BC44883269 (ALS2); assay: Field yield trial with herbicide treatments (Example 2); settings: full herbicide concentration (Tribenuron 1.0X) at V3
Method: (§5) Table 2 describes the soy lines used and whether ALS1, ALS2, or both herbicide resistant genes were present in each.
(§6) Each of the lines in Table 2 was grown at a density of 150,000 seeds/acre (˜8 seeds per foot of row) in two 30 inch rows. Each line was divided into four groups, and each group of each line was subjected to one of the four herbicide treatments listed in Table 3.
(§7) Group 1 of each line was the control group that received no herbicide treatment. Groups 2, 3, and 4 of each line were treated with different concentrations of herbicide corresponding to approximately ¼ strength, ½ strength, and full strength (needed for weed control) respectively of the recommended concentrations of the herbicide DuPont™ Express® w/TotalSol®, which includes Tribenuron, a sulfonylurea herbicide. The herbicide treatment spray solution was prepared according to the label instructions with a non-ionic surfactant and an adjuvant (ammonium sulfate). The herbicide was applied to Groups 2, 3, and 4 during the V3 growth phase, the plants were grown to maturity, and yield measurements were made. Each genotype×herbicide treatment group was replicated six times.

[6] = system: soybean line BC44883270 (ALS1 + ALS2); assay: as above; settings: full herbicide concentration (Tribenuron 1.0X) at V3
Method: as §5, §6, §7

[7] = system: soybean line BC44883300 (ALS2); assay: as above; settings: full herbicide concentration (Tribenuron 1.0X) at V3
Method: as §5, §6, §7

[8] = system: soybean line BC44883336 (ALS1 + ALS2); assay: as above; settings: full herbicide concentration (Tribenuron 1.0X) at V3
Method: as §5, §6, §7

soybean lines of Table 2 = assay: Field yield trial with herbicide treatments (Example 2), all lines; settings: 1/4 concentration herbicide application (Tribenuron 0.25X) at V3
Method: as §5, §6, §7

[9] = system: glyphosate tolerant maize inbred line PH19081; assay: Glyphosate treatment of hydroponically grown maize inbreds, shoot fresh weight (Example 5); settings: seedling fresh weight
Method: (§8) Seeds from four glyphosate tolerant maize inbred lines (PH1BVW2, PH1PMB1, PHSZB1 and PH19081) were washed in 0.615% NaClO solution for 5 minutes and rinsed with deionized water. They were germinated for one week and then transferred into individual 10″ Deepot tubes (1 seedling/tube), either with foam plugs to suspend the plants in the tubes (Experiments 1 &2) or filled with Turface (Experiments 3 & 4). These tubes were placed into hydroponic growing tanks (100 tubes/tank) with a modified Hoagland's media. At the end of the 2nd week after planting, plants from selected tanks were sprayed with glyphosate solutions equivalent to 1× or 2× of the recommended dosage (1× dosage: 1 quart of liquid Round-Up WeatherMax® per acre, or 21.75 ul/ft2). Separately, three inbred lines without the glyphosate tolerance trait (PH1BVW2, PH1PMB1, and PHSZB1) were treated with the same dosages of glyphosate to confirm the efficacy of the herbicide. The inbred lines without the glyphosate tolerance trait were killed by both glyphosate treatments, as expected. Four weeks after germination, plants were harvested and shoot fresh weight was recorded.

[10] = system: glyphosate tolerant maize inbred line PH1BVW2; assay: as above; settings: seedling fresh weight
Method: as §8

[11] = system: inbred lines without the glyphosate tolerance trait (PH1BVW2, PH1PMB1, and PHSZB1); assay: Glyphosate efficacy check on non-tolerant maize inbreds (Example 5); settings: both glyphosate treatments (1× and 2× of the recommended dosage), spray
Method: as §8

[12] = 0.5x rate at V3, 3 environments
[13] = herbicide treatments 2 and 3 (tribenuron 0.5x and 1x), 14 DAT

## CCS(=O)(=O)c1cccnc1S(=O)(=O)NC(=O)Nc1nc(OC)cc(OC)n1 [rimsulfuron]
[1]; 0.5x rate at V3
  Yield as % of control: 76%
  Yield effect: negative
[1]; [12]
  Yield (bu/a): 36.7 bu/a
[1]; 1x rate at V3
  Yield as % of control: 51%
  Yield effect: negative
[1]; 1x rate at V3, 3 environments
  Yield (bu/a): 24.7 bu/a
[1]; 2x rate at V3
  Yield as % of control: 41%
  Yield effect: negative
[1]; 2x rate at V3, 3 environments
  Yield (bu/a): 19.6 bu/a
[2]; 0.5x rate at V3
  Yield as % of control: 54%
  Yield effect: negative
[2]; [12]
  Yield (bu/a): 31.7 bu/a
[2]; 1x rate at V3
  Yield as % of control: 33%
  Yield effect: negative
[2]; 1x rate at V3, 3 environments
  Yield (bu/a): 19.5 bu/a
[2]; 2x rate at V3
  Yield as % of control: 21%
  Yield effect: negative
[2]; 2x rate at V3, 3 environments
  Yield (bu/a): 12.2 bu/a
[3]; 0.5x rate at V3
  Yield as % of control: 99%
  Yield effect: neutral
[3]; [12]
  Yield (bu/a): 60.1 bu/a
[3]; 1x rate at V3
  Yield as % of control: 93%
  Yield effect: negative
[3]; 1x rate at V3, 3 environments
  Yield (bu/a): 56.2 bu/a
[3]; 2x rate at V3
  Yield as % of control: 81%
  Yield effect: negative
[3]; 2x rate at V3, 3 environments
  Yield (bu/a): 48.7 bu/a
[4]; 0.5x rate at V3
  Yield as % of control: 107%
  Yield effect: Positive
[4]; [12]
  Yield (bu/a): 59.8 bu/a
[4]; 1x rate at V3
  Yield as % of control: 108%
  Yield effect: Positive
[4]; 1x rate at V3, 3 environments
  Yield (bu/a): 60.5 bu/a
[4]; 2x rate at V3
  Yield as % of control: 89%
  Yield effect: negative
[4]; 2x rate at V3, 3 environments
  Yield (bu/a): 49.9 bu/a

## COc1nc(C)nc(N(C)C(=O)NS(=O)(=O)c2ccccc2C(=O)O)n1 [tribenuron]
[5]
  yield decrease: about 32%
[6]
  yield improvement over the control: about 4.5%
[7]
  yield decrease: ~19%
[8]
  yield improvement over the control: ~13%
Soybean lines of Table 2
  yield relative to the control (hormesis effect): relative yield increase
[1]; 0.5x rate at V3
  Yield as % of control: 98%
  Yield effect: neutral
[1]; [12]
  Yield (bu/a): 47.5 bu/a
[1]; 0.5x rate at V3, 14 DAT
  Visual injury 14 DAT: 10%
[1]; 1x rate at V3
  Yield as % of control: 101%
  Yield effect: neutral
[1]; 1x rate at V3, 3 environments
  Yield (bu/a): 48.9 bu/a
[1]; 1x rate at V3, 14 DAT
  Visual injury 14 DAT: 18%
[1]; 2x rate at V3
  Yield as % of control: 87%
  Yield effect: negative
[1]; 2x rate at V3, 3 environments
  Yield (bu/a): 41.9 bu/a
[1]; 2x rate at V3, 14 DAT
  Visual injury 14 DAT: 39%
[2]; 0.5x rate at V3
  Yield as % of control: 99%
  Yield effect: neutral
[2]; [12]
  Yield (bu/a): 58.8 bu/a
[2]; 0.5x rate at V3, 14 DAT
  Visual injury 14 DAT: 9%
[2]; 1x rate at V3
  Yield as % of control: 98%
  Yield effect: neutral
[2]; 1x rate at V3, 3 environments
  Yield (bu/a): 58.2 bu/a
[2]; 1x rate at V3, 14 DAT
  Visual injury 14 DAT: 19%
[2]; 2x rate at V3
  Yield as % of control: 82%
  Yield effect: negative
[2]; 2x rate at V3, 3 environments
  Yield (bu/a): 48.6 bu/a
[2]; 2x rate at V3, 14 DAT
  Visual injury 14 DAT: 39%
[3]; 0.5x rate at V3
  Yield as % of control: 101%
  Yield effect: neutral
[3]; [12]
  Yield (bu/a): 61.1 bu/a
[3]; 0.5x rate at V3, 14 DAT
  Visual injury 14 DAT: 3%
[3]; 1x rate at V3
  Yield as % of control: 101%
  Yield effect: neutral
[3]; 1x rate at V3, 3 environments
  Yield (bu/a): 61.3 bu/a
[3]; 1x rate at V3, 14 DAT
  Visual injury 14 DAT: 6%
[3]; 2x rate at V3
  Yield as % of control: 102%
  Yield effect: neutral
[3]; 2x rate at V3, 3 environments
  Yield (bu/a): 61.4 bu/a
[3]; 2x rate at V3, 14 DAT
  Visual injury 14 DAT: 16%
[3]; [13]
  average visual injury: ≤ 6%
[4]; 0.5x rate at V3
  Yield as % of control: 106%
  Yield effect: Positive
[4]; [12]
  Yield (bu/a): 59.4 bu/a
[4]; 0.5x rate at V3, 14 DAT
  Visual injury 14 DAT: 2%
[4]; 1x rate at V3
  Yield as % of control: 104%
  Yield effect: Positive
[4]; 1x rate at V3, 3 environments
  Yield (bu/a): 58.0 bu/a
[4]; 1x rate at V3, 14 DAT
  Visual injury 14 DAT: 5%
[4]; 2x rate at V3
  Yield as % of control: 108%
  Yield effect: Positive
[4]; 2x rate at V3, 3 environments
  Yield (bu/a): 60.0 bu/a
[4]; 2x rate at V3, 14 DAT
  Visual injury 14 DAT: 14%
[4]; [13]
  average visual injury: ≤ 6%

## O=C(O)CNCP(=O)(O)O [glyphosate]
[9]
  hormesis effect upon application of herbicide: positive hormesis effect
[10]
  hormesis effect upon application of herbicide: positive hormesis effect
[11]
  efficacy of the herbicide on non-tolerant lines: killed
